Reference: PubChem BioAssay (NCI)
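Protocol summary: plate cells (96-well), add compound at 5 concentrations, incubate 48 h, interpolate endpoints linearly. At the GI50, growth is halved. TGI: total growth inhibition.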

Assays:
Experiment in all cases: NCI anticancer screen, dose series, 48 h
SN12C renal = system: SN12C renal
SNB-75 CNS = system: SNB-75 CNS
HCC-2998 colon = system: HCC-2998 colon
MOLT-4 leukemia = system: MOLT-4 leukemia
NCI/ADR-RES ovarian = system: NCI/ADR-RES ovarian
CAKI-1 renal = system: CAKI-1 renal
LOX IMVI melanoma = system: LOX IMVI melanoma
SW-620 colon = system: SW-620 colon
BT-549 breast = system: BT-549 breast
M14 melanoma = system: M14 melanoma

Compound	TGI (SN12C renal)	TGI (SNB-75 CNS)	TGI (HCC-2998 colon)	TGI (MOLT-4 leukemia)	TGI (NCI/ADR-RES ovarian)	TGI (CAKI-1 renal)	TGI (LOX IMVI melanoma)	TGI (SW-620 colon)	TGI (BT-549 breast)	TGI (M14 melanoma)	GI50 (SN12C renal)	GI50 (SNB-75 CNS)	GI50 (HCC-2998 colon)	GI50 (MOLT-4 leukemia)	GI50 (NCI/ADR-RES ovarian)	GI50 (CAKI-1 renal)	GI50 (LOX IMVI melanoma)	GI50 (SW-620 colon)	GI50 (BT-549 breast)	GI50 (M14 melanoma)
Cc1cc2nc(-c3cc(C(C)(C)C)c(O)c(C(C)(C)C)c3)[nH]c2cc1C	> 100 µM	> 100 µM	> 100 µM	27.1 µM	> 100 µM	> 26.2 µM	28.6 µM	13.5 µM	> 100 µM	> 100 µM										
Cc1ccc(S(=O)(=O)NC(=O)NNc2ccc(F)cc2)cc1	> 100 µM	> 75.8 µM	> 100 µM	> 100 µM	> 100 µM	> 100 µM	> 100 µM	> 100 µM	> 31.6 µM	> 100 µM										
CN1COCc2cc3cc4c(cc3nc21)OCCO4	> 100 µM	> 100 µM	> 100 µM	> 100 µM	> 100 µM	> 100 µM	> 100 µM	> 100 µM	> 100 µM	> 100 µM										
COC(=O)C1(Cc2ccc3c(c2)CCC3)Cc2ccccc2C1=O (stereo not given)	> 100 µM	> 100 µM	> 100 µM	52.3 µM	> 100 µM	> 100 µM	28.5 µM	> 100 µM	41.7 µM	32.4 µM										
COc1cc(OCc2ccc3nc(OC)c(OC)nc3c2)cc(OC)c1OC	> 10 µM	> 10 µM	> 10 µM	> 10 µM	> 10 µM	> 10 µM	> 10 µM	> 10 µM	> 6.32 µM	> 10 µM										
CCOC(=O)C1(C(=O)OCC)CCCN1C(=O)[C@H](CNC(=O)OC(C)(C)C)NC(=O)OCc1ccccc1	> 100 µM	> 100 µM	> 100 µM	> 100 µM	> 100 µM	> 100 µM	> 100 µM	> 100 µM	> 100 µM	> 100 µM										
COC(=O)C1OC(O[C@H]2CC[C@]3(C)[C@H]4CC=C5[C@@H]6CC(C)(C)CC[C@]6(C(=O)OC6OCC(O)C(O)C6OC6OC(C)C(OC7OCC(OC8OCC(O)C(O)C8O)C(O)C7O)C(O)C6O)[C@H](O)C[C@@]5(C)[C@]4(C)CC[C@H]3C2(C)C)C(O)C(O)C1O (stereo not given in full)	3.36 µM	11.3 µM	3.06 µM	> 100 µM	21.1 µM	11.7 µM	22 µM	11.8 µM	4.4 µM	3.56 µM										
O=C(O)CSC(NC(=O)C(C(F)(F)F)C(F)(F)F)(C(F)(F)F)C(F)(F)F	> 100 µM	> 100 µM	> 100 µM	> 100 µM	> 100 µM	> 100 µM	> 100 µM	> 100 µM	> 100 µM	> 100 µM										
OCC(O)C(O)C(O)/C=N/Nc1nc(O)c(/C=C2\C=Nc3ccccc32)[nH]1 (stereo not given)	> 100 µM	> 100 µM	> 100 µM	> 100 µM	> 100 µM	> 100 µM	> 100 µM	> 100 µM	> 100 µM	> 100 µM										
O=C(O)CC(NC(=O)/C(=C/c1ccccc1O)NC(=O)c1ccccc1)C(=O)O (stereo not given)	> 100 µM	> 100 µM	> 100 µM	> 100 µM	> 100 µM	> 100 µM	> 100 µM	> 100 µM	> 100 µM	> 100 µM										
CC(C)CCn1nc(N)c2nc3ccccc3nc21	> 100 µM	> 100 µM	> 100 µM	94.9 µM	> 100 µM	> 100 µM	> 100 µM	> 100 µM	> 100 µM	> 100 µM										
COC(=O)[C@H](C)NC(=O)[C@H](CSC)N1C(=O)N[C@@H](C(C)C)C1=O	> 100 µM	> 100 µM	> 100 µM	> 100 µM	> 100 µM	> 100 µM	> 100 µM	> 100 µM	> 100 µM	> 100 µM										
COc1ccc(N=C2C(=S)N(c3ccc(OC)cc3)/C(=N/S(=O)(=O)c3ccccc3)N2c2ccccc2)cc1	32.4 µM	35.1 µM	> 57.9 µM	> 100 µM	> 71.4 µM	28.2 µM	16.9 µM	16.3 µM	11.2 µM	12.2 µM										
CC1C(c2ccc3c(c2)OCO3)c2cc3c(cc2OC1N1CCOCC1)OCO3 (stereo not given)	> 100 µM	99.3 µM	65.6 µM	66.9 µM	60.6 µM	> 82.7 µM	60.2 µM	> 100 µM	> 100 µM	76.9 µM										
N#CCCN(CCC#N)c1ccc(/C=C2\SC(=S)NC2=O)cc1Br	> 100 µM	> 100 µM	> 100 µM	> 100 µM	> 100 µM	> 100 µM	80.7 µM	> 100 µM	> 100 µM	> 100 µM										
Cn1ccnc1Sc1ccc(C=Nc2ccc3nc(SCC(=O)NC4CCCCC4)sc3c2)cc1[N+](=O)[O-]	> 100 µM	8.84 µM	> 100 µM	> 100 µM	> 100 µM	> 100 µM	> 100 µM	> 100 µM	46.8 µM	> 100 µM										
COc1ccc(-c2csc(NC(=O)CSc3nc(C)c(-c4ccccc4)n3Nc3ccccc3)n2)cc1	> 100 µM	> 100 µM	> 100 µM	> 100 µM	> 100 µM	> 100 µM	> 100 µM	> 100 µM	> 100 µM	> 100 µM	4.03 µM	12.8 µM	> 100 µM	3.78 µM	4.21 µM	2.5 µM	5.85 µM	51.9 µM	8.93 µM	8.66 µM
